Data on nine compounds can be found in ChEMBL document CHEMBL4834475, “Synthesis of anti-proliferative [3.3.0]furofuranone derivatives by lactonization and functionalization of C-glycosyl compounds” (Bioorg Med Chem, 2021).

Active and inactive are the calls of the source. The rule behind the calls is not given here.

Assay [1] concerns U-87 MG. The assay is described as follows: Antiproliferative activity against human U87 cells assessed as reduction in cell viability at 0.1 to 250 uM measured after 72 hrs by MTT assay. Type of assay: functional, cell-based. The note with it: U-87MG ATCC, dose 0.1-250 µM.
Assay [2] concerns Daoy. Kind of assay: Antiproliferative activity against human Daoy cells assessed as reduction in cell viability at 0.1 to 250 uM measured after 72 hrs by MTT assay. Type of assay: functional, cell-based. To be noted: dose 0.1-250 µM. For orientation: Formazan colour is commonly taken as a measure of viable cells.
Assay [3] has as its system MDA-MB-231. The assay is described as follows: Antiproliferative activity against human MDA-MB-231 cells assessed as reduction in cell viability at 0.1 to 250 uM measured after 72 hrs by MTT assay. The class given is functional, cell-based. To be noted: dose 0.1-250 µM.
Assay [4] relates to U-251. The assay is described as follows: Antiproliferative activity against human U-251 cells assessed as reduction in cell viability at 0.1 to 250 uM measured after 72 hrs by MTT assay. Type of assay: functional, cell-based. The note with it: dose 0.1-250 µM.
For assay [5], the system named is Daoy. Kind of assay: Antiproliferative activity against human Daoy cells assessed as reduction in cell viability measured after 72 hrs by MTT assay. The class given is functional, cell-based.
Assay [6] concerns MDA-MB-231. Kind of assay: Antiproliferative activity against human MDA-MB-231 cells assessed as reduction in cell viability measured after 72 hrs by MTT assay. The class given is functional, cell-based. The note with it: MDA-MB-231, 72 h.
Assay [7] has as its system U-251. The assay is described as follows: Antiproliferative activity against human U-251 cells assessed as reduction in cell viability measured after 72 hrs by MTT assay. To be noted: U-251, 72 h. The class given is functional, cell-based.
Assay [8] concerns U-251. The assay is described as follows: Induction of apoptosis in human U-251 cells assessed as increase in accumulation of cells at sub-G1 phase at 0.1 uM measured after 72 hrs by propidium iodide staining based flow cytometry. Type of assay: functional, cell-based.
Assay [9] concerns U-251. Kind of assay: Induction of cell cycle arrest in human U-251 cells assessed as increase in accumulation of cells at G1 phase at 0.1 uM measured after 72 hrs by propidium iodide staining based flow cytometry. Type of assay: functional. On the technique in general: A flow cytometer gives signals particle by particle.
Assay [10] concerns U-87 MG. Kind of assay: Antiproliferative activity against human U87 cells assessed as reduction in cell viability measured after 72 hrs by MTT assay. The class given is functional, cell-based, U-87MG ATCC.
Assay [11] deals with U-251. The assay is described as follows: Induction of cell cycle arrest in human U-251 cells assessed as accumulation at G2/M phase at 1 uM measured after 72 hrs by propidium iodide staining based flow cytometry. The class given is functional.
In assay [12] the test system is U-251. The assay is described as follows: Induction of cell cycle arrest in human U-251 cells assessed as accumulation at S phase at 1 uM measured after 72 hrs by propidium iodide staining based flow cytometry. Type of assay: functional.
Assay [13] deals with U-251. The assay is described as follows: Induction of cell cycle arrest in human U-251 cells assessed as accumulation at G1 phase at 1 uM measured after 72 hrs by propidium iodide staining based flow cytometry. The class given is functional.

As to `O=C1C[C@H]2O[C@@H](CO)[C@@H](O)[C@H]2O1`, the outcome in [1], in assay [2], in [3] and in assay [4] was inactive.

On to `COc1cccc2c1C(=O)c1c(O)c3c(c(O)c1C2=O)C[C@@](O)(C(=O)CO)C[C@@H]3O[C@H]1C[C@H](N)[C@H](O)[C@H](C)O1` [DOXORUBICIN], for which the IC50 in [5] is 0.0629 µM; in [6], 0.482 µM; in assay [7], 0.106 µM; in assay [10], 0.186 µM. Also, the result in assay [8] and in assay [9] was Active.

With `O=C1C[C@H]2O[C@@H](CO)[C@@H](OCc3ccccc3)[C@H]2O1`, the outcome in [1], in assay [2], in [3] and in assay [4] was inactive.

With `O=C1C[C@H]2O[C@H](CO)[C@@H](O)[C@H]2O1`, the outcome in assay [1], in assay [2], in assay [3] and in [4] was inactive.

For `O=C1C[C@H]2O[C@@H](CI)[C@@H](O)[C@H]2O1`, the IC50 in assay [5] is 141 µM; in assay [7] it was 529 µM; in assay [10], 7.61 µM. Moreover, the outcome in assay [11], in assay [12] and in [13] was inactive.

Consider `O=C1C[C@H]2O[C@H](CO)[C@@H](OCc3ccccc3)[C@H]2O1`, for which the result in assay [1], in assay [2], in assay [3] and in assay [4] was inactive.

In the case of `O=C1C[C@H]2O[C@@H]([C@@H](O)c3ccccc3)[C@@H](O)[C@H]2O1`, the result in assay [1], in [2], in [3] and in assay [4] was inactive.

Turning to `O=C1C[C@H]2O[C@@H]([C@H](O)c3ccccc3)[C@@H](O)[C@H]2O1`, the outcome in assay [1], in assay [2], in assay [3] and in assay [4] was inactive.

For the compound `O=C(/C=C/c1ccccc1)O[C@H](c1ccccc1)[C@@H]1O[C@@H]2CC(=O)O[C@@H]2[C@@H]1O`, the IC50 in [5] was found to be 612 µM; in assay [6], 535 µM; in [7], 1.34 µM; in assay [10], 32.4 µM. Further, the result in assay [11], in assay [12] and in [13] was inactive.

One may read the IC50 as the concentration at which inhibition is half-maximal.
